Measured values reported in patent publication US20230293526A1, “METHOD FOR TREATING CANCER WITH A REVERSE TRANSCRIPTASE INHIBITOR” (PrimeFour Therapeutics, Inc., priority 2020, published 2023).

Test system: cancer cell lines
Experiment: Cancer cell proliferation activity of representative nucleosides, CellTiterGlo 72 h (Example 7, Tables 8 and 9)
Format: cell-based
Method: Dose response relationships on cell proliferation was assessed for representative nucleosides on cancer cell lines. Briefly, compound treatment of cells started one day after seeding with a final DMSO concentration of 0.1%, and was performed by nanodrop-dispensing using a Tecan Dispenser. 0.1% DMSO (solvent) and Staurosporine (10 μM) served as high control (100% viability) and low control (0% viability), respectively. Cells were cultured in the appropriate media. For the assays, cells were seeded in white cell culture-treated flat and clear bottom multiwell plates and incubated at 37° C. overnight before compound was added. After incubation for 72 h at 37° C. at 5% or 10% CO2 dependent on the medium, cell plates were equilibrated to room temperature for one hour, CellTiterGlo reagent (Promega) was added and luminescence was measured approximately an hour later using a luminometer.
Raw data were converted into percent cell viability relative to the high and low control, which were set to 100% and 0%, respectively.

IC50 (72 h, 5637, 72 h (Table 9)): 450 nM
IC50 (72 h, CLS439, 72 h (Table 9)): 2270 nM
IC50 (72 h, HS729, 72 h (Table 9)): 580 nM
IC50 (72 h, J82, 72 h (Table 9)): 760 nM
IC50 (72 h, JAR, 72 h (Table 9)): > 50000 nM
IC50 (72 h, MT3, 72 h (Table 9)): 80 nM
IC50 (72 h, PC3, 72 h (Table 9)): 180 nM
IC50 (72 h, RD, 72 h (Table 9)): 1030 nM
IC50 (72 h, T24, 72 h (Table 9)): 290 nM
IC50 (Homo sapiens, 22Rv1, 72 h, 22RV1, 72 h (Table 9)): 1330 nM
IC50 (Homo sapiens, 786-0, 72 h, 786O, 72 h (Table 9)): 1070 nM
IC50 (Homo sapiens, A204, 72 h, A204, 72 h (Table 9)): 20 nM
IC50 (Homo sapiens, A549, 72 h, A549, 72 h (Table 9)): 440 nM
IC50 (Homo sapiens, A673, 72 h, A673, 72 h (Table 9)): 1740 nM
IC50 (Homo sapiens, A2780, 72 h, A2780, 72 h (Table 9)): 720 nM
IC50 (Homo sapiens, A-375, 72 h, A375, 72 h (Table 9)): 710 nM
IC50 (Homo sapiens, A-431, 72 h, A431, 72 h (Table 9)): 470 nM
IC50 (Homo sapiens, ACHN, 72 h, 72 h (Table 9)): 390 nM
IC50 (Homo sapiens, ASPC1, 72 h, ASPC1, 72 h (Table 9)): 580 nM
IC50 (Homo sapiens, BT-20, 72 h, BT20, 72 h (Table 9)): 580 nM
IC50 (Homo sapiens, BXPC-3, 72 h, BXPC3, 72 h (Table 9)): 540 nM
IC50 (Homo sapiens, C-33-A, 72 h, C33A, 72 h (Table 9)): 240 nM
IC50 (Homo sapiens, CAKI-1, 72 h, CAKI1, 72 h (Table 9)): 110 nM
IC50 (Homo sapiens, COLO 205, 72 h, COLO205, 72 h (Table 9)): 210 nM
IC50 (Homo sapiens, COLO-678, 72 h, COLO678, 72 h (Table 9)): 3760 nM
IC50 (Homo sapiens, Ca-Ski, 72 h, CASKI, 72 h (Table 9)): 3960 nM
IC50 (Homo sapiens, Caco-2, 72 h, CACO2, 72 h (Table 9)): > 50000 nM
IC50 (Homo sapiens, Calu-6, 72 h, CALU6, 72 h (Table 9)): 720 nM
IC50 (Homo sapiens, DLD-1, 72 h, DLD1, 72 h (Table 9)): 2650 nM
IC50 (Homo sapiens, DU-145, 72 h, DU145, 72 h (Table 9)): 310 nM
IC50 (Homo sapiens, EFO-21, 72 h, EFO21, 72 h (Table 9)): 790 nM
IC50 (Homo sapiens, EJ-28, 72 h, EJ28, 72 h (Table 9)): 1530 nM
IC50 (Homo sapiens, Granta-519, 72 h, GRANTA-519, 72 h (Table 9)): 70 nM
IC50 (Homo sapiens, HCT-15, 72 h, HCT15, 72 h (Table 9)): 460 nM
IC50 (Homo sapiens, HCT-116, 72 h, HCT116, 72 h (Table 9)): 470 nM
IC50 (Homo sapiens, HEK293, 72 h, HEK293, 72 h (Table 9)): > 50000 nM
IC50 (Homo sapiens, HL-60, 72 h, HL-60, 72 h (Table 9)): 1010 nM
IC50 (Homo sapiens, HT-29, 72 h, HT29, 72 h (Table 9)): 1270 nM
IC50 (Homo sapiens, HT-1080, 72 h, HT1080, 72 h (Table 9)): 380 nM
IC50 (Homo sapiens, HeLa, 72 h, 72 h (Table 9)): 1000 nM
IC50 (Homo sapiens, HepG2, 72 h, HEPG2, 72 h (Table 9)): 1000 nM
IC50 (Homo sapiens, Hs-578T, 72 h, HS578T, 72 h (Table 9)): 970 nM
IC50 (Homo sapiens, IGROV-1, 72 h, IGROV1, 72 h (Table 9)): 510 nM
IC50 (Homo sapiens, IMR-90, 72 h, IMR90, 72 h (Table 9)): 1580 nM
IC50 (Homo sapiens, JEG-3, 72 h, JEG3, 72 h (Table 9)): 3340 nM
IC50 (Homo sapiens, JIMT-1, 72 h, JIMT1, 72 h (Table 9)): 190 nM
IC50 (Homo sapiens, K562, 72 h, K-562, 72 h (Table 9)): 4450 nM
IC50 (Homo sapiens, Kasumi 1, 72 h, KASUMI-1, 72 h (Table 9)): 270 nM
IC50 (Homo sapiens, L-363, 72 h, L-363, 72 h (Table 9)): > 50000 nM
IC50 (Homo sapiens, LoVo, 72 h, 72 h (Table 9)): 290 nM
IC50 (Homo sapiens, MCF7, 72 h, MCF7, 72 h (Table 9)): 3170 nM
IC50 (Homo sapiens, MDA-MB-231, 72 h, MDAMB231, 72 h (Table 9)): 100 nM
IC50 (Homo sapiens, MDA-MB-435, 72 h, MDAMB435, 72 h (Table 9)): 1300 nM
IC50 (Homo sapiens, MDA-MB-436, 72 h, MDAMB436, 72 h (Table 9)): 950 nM
IC50 (Homo sapiens, MDA-MB-468, 72 h, MDAMB468, 72 h (Table 9)): 3110 nM
IC50 (Homo sapiens, MG-63, 72 h, MG63, 72 h (Table 9)): 480 nM
IC50 (Homo sapiens, MHH-ES-1, 72 h, MHHES1, 72 h (Table 9)): 1660 nM
IC50 (Homo sapiens, MIA PaCa-2, 72 h, MIAPACA2, 72 h (Table 9)): 1150 nM
IC50 (Homo sapiens, MINO, 72 h, 72 h (Table 9)): 60 nM
IC50 (Homo sapiens, MV4-11, 72 h, MV4-11, 72 h (Table 9)): 840 nM
IC50 (Homo sapiens, NCI-H23, 72 h, NCI-H23, 72 h (Table 9)): 720 nM
IC50 (Homo sapiens, NCI-H82, 72 h, NCIH82, 72 h (Table 9)): 1150 nM
IC50 (Homo sapiens, NCI-H292, 72 h, NCIH292, 72 h (Table 9)): 920 nM
IC50 (Homo sapiens, NCI-H460, 72 h, NCIH460, 72 h (Table 9)): 770 nM
IC50 (Homo sapiens, OVCAR-3, 72 h, OVCAR3, 72 h (Table 9)): 640 nM
IC50 (Homo sapiens, OVCAR-4, 72 h, OVCAR4, 72 h (Table 9)): 8050 nM
IC50 (Homo sapiens, PANC-1, 72 h, PANC1, 72 h (Table 9)): 620 nM
IC50 (Homo sapiens, PLC-PRF-5, 72 h, PLCPRF5, 72 h (Table 9)): > 50000 nM
IC50 (Homo sapiens, Panc1005, 72 h, PANC1005, 72 h (Table 9)): > 50000 nM
IC50 (Homo sapiens, Ramos, 72 h, 72 h (Table 9)): 240 nM
IC50 (Homo sapiens, SAOS-2, 72 h, SAOS2, 72 h (Table 9)): 110 nM
IC50 (Homo sapiens, SF-268, 72 h, SF268, 72 h (Table 9)): 260 nM
IC50 (Homo sapiens, SF-295, 72 h, SF295, 72 h (Table 9)): 3250 nM
IC50 (Homo sapiens, SK-BR-3, 72 h, SKBR3, 72 h (Table 9)): 260 nM
IC50 (Homo sapiens, SK-HEP1, 72 h, SKHEP1, 72 h (Table 9)): 320 nM
IC50 (Homo sapiens, SK-LMS-1, 72 h, SKLMS1, 72 h (Table 9)): 860 nM
IC50 (Homo sapiens, SK-MEL-5, 72 h, SKMEL5, 72 h (Table 9)): 6180 nM
IC50 (Homo sapiens, SK-MEL-28, 72 h, SKMEL28, 72 h (Table 9)): 1320 nM
IC50 (Homo sapiens, SK-N-AS, 72 h, SKNAS, 72 h (Table 9)): 1220 nM
IC50 (Homo sapiens, SK-N-SH, 72 h, SKNSH, 72 h (Table 9)): > 50000 nM
IC50 (Homo sapiens, SK-OV-3, 72 h, SKOV3, 72 h (Table 9)): 1460 nM
IC50 (Homo sapiens, SNB-75, 72 h, SNB75, 72 h (Table 9)): 550 nM
IC50 (Homo sapiens, SU-DHL10, 72 h, SU-DHL-10, 72 h (Table 9)): 560 nM
IC50 (Homo sapiens, SU-DHL-6, 72 h, SU-DHL-6, 72 h (Table 9)): 310 nM
IC50 (Homo sapiens, SW-620, 72 h, SW620, 72 h (Table 9)): 1140 nM
IC50 (Homo sapiens, TE-671, 72 h, TE671, 72 h (Table 9)): 1020 nM
IC50 (Homo sapiens, THP-1, 72 h, THP-1, 72 h (Table 9)): 650 nM
IC50 (Homo sapiens, U2OS, 72 h, 72 h (Table 9)): 2450 nM
IC50 (Homo sapiens, U-87 MG, 72 h, U87MG, 72 h (Table 9)): 400 nM
IC50 (Homo sapiens, UMUC3, 72 h, UMUC3, 72 h (Table 9)): 1210 nM
IC50 (Homo sapiens, UO-31, 72 h, UO31, 72 h (Table 9)): 550 nM
IC50 (Homo sapiens, WSU-NHL, 72 h, 72 h (Table 9)): 150 nM
IC50 (NCI-H358M, 72 h, NCIH358M, 72 h (Table 9)): 120 nM
IC50 (PBMC, 72 h, 72 h (Table 9)): 710 nM
IC50 (RD-ES, 72 h, RDES, 72 h (Table 9)): 1900 nM
SMILES: Nc1ccn([C@H]2C[C@H](O)[C@](CO)(CF)O2)c(=O)n1 [compound 32]
